Assay: MTT cellular viability assay, 293
Assay type: cell-based
Details: human, 293 cells (human kidney epithelial cell line, ATCC CRL-1573), Example 7, FIG. 5, normal cell line 293

## CC(=O)O[C@H]1C(=O)[C@@]2(C)[C@H]([C@H](OC(=O)c3ccccc3)[C@]3(O)C[C@H](OC(=O)[C@H](O)[C@@H](NC(=O)c4ccccc4)c4ccccc4)C(C)=C1C3(C)C)[C@]1(OC(C)=O)CO[C@@H]1C[C@@H]2O [TAXOL]
  viability at 24 h: 20 to 25%
